Results taken from patent publication US12077503B2, “Substituted cyclic amides and their use as herbicides” (FMC CORPORATION, priority 2015, dated 2024).

Legend:
Type in all cases: in vivo
[1] = test system: sedge, umbrella (small-flower umbrella sedge, Cyperus difformis); experiment: Test B flooded paddy test; settings: Cyperus difformis, 360 h, Flood, 250 g ai/ha; visually evaluated after 13 to 15 d; read-out: Plant response rating, Sedge, Umbrella (0 to 100 scale where 0 is no effect and 100 is complete control)
How it was run: (§1)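 Visual ratings (0 none to 100 complete control) are relative to untreated plants, taken 13–15 d after treatment in a greenhouse. Test material went straight into floodwater standing 3 cm above the soil, kept constant, on plants at the 2-leaf stage.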

[2] = test system: ducksalad (Heteranthera limosa); experiment: Test B flooded paddy test; settings: Heteranthera limosa, 360 h, Flood, 250 g ai/ha; visually evaluated after 13 to 15 d; read-out: Plant response rating, Ducksalad (0 to 100 scale where 0 is no effect and 100 is complete control)
How it was run: as §1

[3] = test system: barnyardgrass (Echinochloa crus-galli); experiment: Test B flooded paddy test; settings: Echinochloa crus-galli, 360 h, Flood, 250 g ai/ha; visually evaluated after 13 to 15 d; read-out: Plant response rating, Barnyardgrass (0 to 100 scale where 0 is no effect and 100 is complete control)
How it was run: as §1

rice (Oryra sativa) = experiment: Test B flooded paddy test; settings: Oryza sativa, 360 h, Flood, 250 g ai/ha; visually evaluated after 13 to 15 d; read-out: Plant response rating, Rice (0 to 100 scale where 0 is no effect and 100 is complete control)
How it was run: as §1

[4] = test system: giant foxtail (Setaria faberii); experiment: Test A preemergence; settings: Setaria faberi, pre-emergence, 240 h, Preemergence
How it was run: (§2)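 Visual injury, scored on a 0–100 scale relative to untreated controls, was recorded about 10 d after application. Treatments were a preemergence soil spray over planted seeds or a postemergence spray on plants at the one- to two-leaf stage, 2 to 10 cm tall, all in loam soil–sand blend in the greenhouse.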

[5] = test system: ryegrass, Italian (Italian ryegrass, Lolium multiflorum); experiment: Test A preemergence; settings: Lolium multiflorum, pre-emergence, 240 h, Preemergence
How it was run: as §2

[6] = test system: ragweed (common ragweed, Ambrosia elatior); experiment: Test A preemergence; settings: Ambrosia artemisiifolia, pre-emergence, 240 h, Preemergence
How it was run: as §2

[7] = test system: pigweed (Amaranthus retroflexus); experiment: Test A preemergence; settings: Amaranthus retroflexus, pre-emergence, 240 h, Preemergence
Kochia (Kochia scoparia) [8] = experiment: Test A preemergence; settings: Bassia scoparia, pre-emergence, 240 h, Preemergence
How it was run: as §2

[9] = test system: barnyardgrass (Echinochloa crus-galli); experiment: Test A preemergence; settings: Echinochloa crus-galli, pre-emergence, 240 h, Preemergence
How it was run: as §2

corn (Zea mays) = experiment: Test A postemergence; settings: Zea mays, post-emergence, 240 h, Postemergence
How it was run: as §2

[10] = test system: giant foxtail (Setaria faberii); experiment: Test A postemergence; settings: Setaria faberi, post-emergence, 240 h, Postemergence
How it was run: as §2

[11] = test system: ryegrass, Italian (Italian ryegrass, Lolium multiflorum); experiment: Test A postemergence; settings: Lolium multiflorum, post-emergence, 240 h, Postemergence
How it was run: as §2

[12] = test system: blackgrass (Alopecurus myosuroides); experiment: Test A postemergence; settings: Alopecurus myosuroides, post-emergence, 240 h, Postemergence
How it was run: as §2

[13] = test system: ragweed (common ragweed, Ambrosia elatior); experiment: Test A postemergence; settings: Ambrosia artemisiifolia, post-emergence, 240 h, Postemergence
How it was run: as §2

[14] = test system: pigweed (Amaranthus retroflexus); experiment: Test A postemergence; settings: Amaranthus retroflexus, post-emergence, 240 h, Postemergence
How it was run: as §2

Kochia (Kochia scoparia) [15] = experiment: Test A postemergence; settings: Bassia scoparia, post-emergence, 240 h, Postemergence
How it was run: as §2

[16] = test system: Galium (catchweed bedstraw, Galium aparine); experiment: Test A postemergence; settings: Galium, post-emergence, 240 h, Postemergence
How it was run: as §2

[17] = test system: barnyardgrass (Echinochloa crus-galli); experiment: Test A postemergence; settings: Echinochloa crus-galli, post-emergence, 240 h, Postemergence
How it was run: as §2

[18] = test system: wheat (Triticum aestivum); experiment: Test A postemergence; settings: Triticum aestivum, post-emergence, 240 h, Postemergence
How it was run: as §2

CN1C[C@H](c2ccc(C(F)(F)F)cc2)[C@@H](C(=O)Nc2cccnc2F)C1=O [Compound 1396]
90%: pest or weed control at 31 g/ha ([4]; 31 g ai/ha, 0 to 100 scale where 0 is no effect and 100 is complete control, read-out: Foxtail, Giant plant response rating) | pest or weed control at 125 g/ha ([4]; 125 g ai/ha, 0 to 100 scale (0 no effect, 100 complete control), read-out: Plant response rating, Foxtail, Giant) | pest or weed control at 125 g/ha ([7]; 125 g ai/ha, 0 to 100 scale (0 no effect, 100 complete control), read-out: Plant response rating, Pigweed) | pest or weed control at 31 g/ha ([9]; 31 g ai/ha, 0 to 100 scale where 0 is no effect and 100 is complete control, read-out: Barnyardgrass plant response rating) | pest or weed control at 125 g/ha ([9]; 125 g ai/ha, 0 to 100 scale (0 no effect, 100 complete control), read-out: Plant response rating, Barnyardgrass)
30%: pest or weed control at 31 g/ha ([6]; 31 g ai/ha, 0 to 100 scale where 0 is no effect and 100 is complete control, read-out: Ragweed plant response rating) | pest or weed control at 31 g/ha (Kochia (Kochia scoparia) [8]; 31 g ai/ha, 0 to 100 scale where 0 is no effect and 100 is complete control, read-out: Kochia plant response rating) | pest or weed control at 31 g/ha ([14]; 31 g ai/ha, 0 is no effect, 100 is complete control, read-out: Pigweed plant response rating (0 to 100 scale))
100%: pest or weed control at 250 g/ha [2]
20%: plant injury at 31 g/ha (corn (Zea mays); 31 g ai/ha, 0 is no effect, 100 is complete control, read-out: Corn plant response rating (0 to 100 scale)) | pest or weed control at 31 g/ha ([11]; 31 g ai/ha, 0 is no effect, 100 is complete control, read-out: Ryegrass, Italian plant response rating (0 to 100 scale))
80%: pest or weed control at 250 g/ha [3] | pest or weed control at 31 g/ha ([10]; 31 g ai/ha, 0 is no effect, 100 is complete control, read-out: Foxtail, Giant plant response rating (0 to 100 scale)) | pest or weed control at 125 g/ha ([10]; 125 g ai/ha, visual injury after approx. 10 d, 0 to 100 scale, 0 no effect, 100 complete control, read-out: Plant response rating, Foxtail, Giant) | pest or weed control at 125 g/ha ([17]; 125 g ai/ha, visual injury after approx. 10 d, 0 to 100 scale, 0 no effect, 100 complete control, read-out: Plant response rating, Barnyardgrass)
70%: pest or weed control at 31 g/ha ([7]; 31 g ai/ha, 0 to 100 scale where 0 is no effect and 100 is complete control, read-out: Pigweed plant response rating) | pest or weed control at 125 g/ha (Kochia (Kochia scoparia) [8]; 125 g ai/ha, 0 to 100 scale (0 no effect, 100 complete control), read-out: Plant response rating, Kochia) | pest or weed control at 125 g/ha ([14]; 125 g ai/ha, visual injury after approx. 10 d, 0 to 100 scale, 0 no effect, 100 complete control, read-out: Plant response rating, Pigweed) | pest or weed control at 125 g/ha (Kochia (Kochia scoparia) [15]; 125 g ai/ha, visual injury after approx. 10 d, 0 to 100 scale, 0 no effect, 100 complete control, read-out: Plant response rating, Kochia) | pest or weed control at 125 g/ha ([16]; 125 g ai/ha, visual injury after approx. 10 d, 0 to 100 scale, 0 no effect, 100 complete control, read-out: Plant response rating, Galium) | pest or weed control at 31 g/ha ([17]; 31 g ai/ha, 0 is no effect, 100 is complete control, read-out: Barnyardgrass plant response rating (0 to 100 scale)) | plant injury at 125 g/ha ([18]; 125 g ai/ha, visual injury after approx. 10 d, 0 to 100 scale, 0 no effect, 100 complete control, read-out: Plant response rating, Wheat)
40%: pest or weed control at 125 g/ha ([5]; 125 g ai/ha, 0 to 100 scale (0 no effect, 100 complete control), read-out: Plant response rating, Ryegrass, Italian) | pest or weed control at 125 g/ha ([11]; 125 g ai/ha, visual injury after approx. 10 d, 0 to 100 scale, 0 no effect, 100 complete control, read-out: Plant response rating, Ryegrass, Italian)
50%: pest or weed control at 125 g/ha ([12]; 125 g ai/ha, visual injury after approx. 10 d, 0 to 100 scale, 0 no effect, 100 complete control, read-out: Plant response rating, Blackgrass) | pest or weed control at 125 g/ha ([13]; 125 g ai/ha, visual injury after approx. 10 d, 0 to 100 scale, 0 no effect, 100 complete control, read-out: Plant response rating, Ragweed)
0%: pest or weed control at 250 g/ha [1] | pest or weed control at 31 g/ha ([5]; 31 g ai/ha, 0 to 100 scale where 0 is no effect and 100 is complete control, read-out: Ryegrass, Italian plant response rating) | pest or weed control at 31 g/ha ([12]; 31 g ai/ha, 0 is no effect, 100 is complete control, read-out: Blackgrass plant response rating (0 to 100 scale)) | pest or weed control at 31 g/ha ([13]; 31 g ai/ha, 0 is no effect, 100 is complete control, read-out: Ragweed plant response rating (0 to 100 scale)) | plant injury at 31 g/ha ([18]; 31 g ai/ha, 0 is no effect, 100 is complete control, read-out: Wheat plant response rating (0 to 100 scale))
60%: pest or weed control at 125 g/ha ([6]; 125 g ai/ha, 0 to 100 scale (0 no effect, 100 complete control), read-out: Plant response rating, Ragweed) | Corn plant response rating (crop injury, 0 = no effect, 100 = complete kill) at 125 g/ha (corn (Zea mays); 125 g ai/ha, visual injury after approx. 10 d, 0 to 100 scale, 0 no effect, 100 complete control) | pest or weed control at 31 g/ha (Kochia (Kochia scoparia) [15]; 31 g ai/ha, 0 is no effect, 100 is complete control, read-out: Kochia plant response rating (0 to 100 scale)) | pest or weed control at 31 g/ha ([16]; 31 g ai/ha, 0 is no effect, 100 is complete control, read-out: Galium plant response rating (0 to 100 scale))
25%: pest or weed control at 250 g/ha (rice (Oryra sativa))
